# Reference: patent US6265423A, “Aromatic polycyclic retinoid-type derivatives, method for preparing same, and use thereof for making pharmaceutical and cosmetic compositions” (priority 1996, dated 2001)
# Experiments:
# [1] = tested on: AP-1, MTLN lineage (MCF-7); test: Anti-AP-1 effect, MTLN lineage activated by TPA; format: cell-based, human
# Description: (§1) Certain properties of the retinoids have been determined using more developed cellular models. These models consist of cellular lineages transfected in a stable fashion by recombinant plasmids which place the expression of the gene of the luciferase under the control of different nuclear response elements. […] The tests carried out in duplicate are described below for each of these models.
# The anti-factor AP-1 transrepressor effect of retinoids is determined using the MTLN lineage, coming from MCF-7 cells transfected in a stable fashion by a vector p(TRE)3 -tk-Luc which places the expression of the gene of luciferase under the control of […]. TPA activates the AP-1 complex formed from proteins of the family of nuclear proto-oncogenes (c-Jun and c-Fos). […] The experiments are made with the MTLN cells activated by 10^-7 M TPA.
# The effect of the compounds on the MTLN cells activated by 10^-7 M TPA is expressed as a percentage. […] The inhibitive properties of the products are calculated after deduction of the base activity of the cells. The percentages reported correspond to a range of inhibitions determined from several experiments.
# [2] = tested on: ERE-βGlob-Luc, MELN lineage (MCF-7); test: Anti-oestrogenic effect, MELN lineage activated by estradiol; format: cell-based, human
# Source text: as §1
# MCF-7 cells express RARα,γ and RXRα. The transfection of MCF-7 cells by an oestrogen-dependent gene (ERE-βGlob-Luc) has permitted the establishment of the MELN cellular lineage, used to determine the anti-oestrogenic activity of the retinoids. These cells contain the gene of the luciferase under the transcriptional control of the promoter of the βGlobine and of the response element ERE isolated from the gene of chicken vitelogenine A2. The experiments are carried out with MELN cells activated by 10^-9 M estradiol. The level of base activity of the MELN cells is obtained with the anti-oestrogen 1 μM 4-OH-tamoxifen (hydroxytamoxifen).
# The effect of the products tested on the cells activated by 10^-9 M estradiol is expressed as a percentage, the level of base activity being deducted.
# [3] = tested on: human mammary tumoral lineage T-47D; test: Clonogenic test (soft agar), growth of cellular colonies; format: cell-based; conditions: T-47D; for mean number of cellular colonies in relation to control / activity at 0.1 µM / activity at 0.01 µM / activity at 0.001 µM / activity at 0.0001 µM: 21 days, control = 100%; for activity at 0.1 µM / activity at 0.01 µM / activity at 0.001 µM / activity at 0.0001 µM: Homo sapiens, T47D, 504 h, read-out: mean number of cellular colonies in relation to control; for activity at 0.1 µM: 10^-7 M; for effect on growth of cellular colonies (in words): soft agar
# Source text: The human tumour stem cells are the clonogenic cells which are the origin of the neoplasic cells which constitute a given tumour. These tumour stem cells are responsible for the recidivism process observable after surgical resection of the primary tumours and are also responsible for the formation of metastases. […] At the level of a tumour or of a tumoral cellular lineage, these clonogenic stem cells distinguish themselves from other clonogenic cells of the tumour or of the neoplasic cellular lineage being considered, by the fact that they preserve their ability to proliferate in the absence of any solid support.
# This technique is suitable for the culturing in vitro of most of the tumours and tumoral cellular lineages of various histological types. In the context of this test, the neoplastic cells are cultured on a semi-solid culture medium "soft agar" made up of a mixture of agar and agarose. On this selective support, only tumoral stem cells survive and proliferate. […] The morphological characteristics and the growth of the cellular colonies are also a function of the histological type of the tumours being considered.
# These culture conditions are also called "anchorage-independent" conditions.
# The base medium "MEM 25 MM HEPES" (Minimum Essential Medium, Life Technologies, Belgium) contains Eagle salts but no L-glutamine. This medium is well suited to the growth of a range of varied diploid cells or primary mammal cells. To this medium is then added:
# The tumoral cells are maintained in culture in 25 cm^2 falcon dishes (Life Technologies, Belgium). They are then trypsinised and individualised. Their rate of viability is determined by coloration with trypan blue (Sigma, Belgium). It must be greater than 90%. In the case where this condition is kept to, a cellular suspension at the desired concentration is prepared in a solution of agar at 0. 3%. The cells are then seeded between two layers of agar (Sigma, Belgium) and in 35 mm Petri dishes (Life Technologies, Belgium). The base layer is made up of a 0.5% solution of agar and the top layer is made up of a 0.3% solution of agar. The cupules are then positioned and held in an incubator at 37° C. and 5% of CO2. […] After treatment, the cupules are kept in the incubator for 21 days. It is advisable to examine, during the course of the experiment, the appearance and the increase of the cellular colonies. If after 10 days, no colony appears or is developing, the experiment must be repeated. In the contrary case, on the 21st day, 100 μl of an MTT solution (3-(4,5-dimethylthiazol-2-yl)-2,5 diphenyl tetrazolium bromide; Sigma, Belgium) dissolved in the RPMI culture medium (Roswell park Memorial Institute, Life Technologies, Belgium), at the concentration of 1 mg/ml are deposited on the top layer of the group of cupules. The cells are kept in contact with this solution for a minimum of 3 hours at 37° C.
# Using an inverted microscope at low magnification, the number of clones whose surface area is greater thar. 100 μm^2 is determined for the group of cupules representing all the different experimental conditions. Then, for each of these experimental conditions, the mean number of cellular colonies±the standard error on the mean (ESM) is calculated.
# The mean number of cellular colonies determined for each experimental condition is expressed as a percentage in relation to the control condition made equal to 100%.
# [4] = tested on: ZR-75-1 human mammary cancer cells; test: MTT test, proliferation of ZR-75-1; format: cell-based; conditions: Homo sapiens, 72 h, control = 100%, read-out: level of proliferation; for activity at 100 µM: ZR-75-1, 10^-4 M; for activity at 1 µM: ZR-75-1, 10^-6 M; for activity at 0.01 µM: ZR-75-1, 10^-8 M
# Description: (§2) The cells that were cultured came from the ATCC (American Type Culture Collection).
# (§3) The cellular lines are kept in culture in a monolayer at 37° C. in closed culture dishes (Nunc. Gibco BRL, Life Technologies, Belgium) containing the minimum essential medium (MEM, Gibco) supplemented with 5% of Foetal Calf Serum, (FCS, Gibco), 0.6 mg/ml of glutamine (Gibco) and a mixture of 200 IU/mi of penicillin (Gibco), 200 μg/ml of streptomycin (Gibco) and 0.1 mg/ml of gentamycin (Gibco). The foetal calf serum is decomplemented for 1 hour at 56° C.
# (§4) This test is based on the mitochondrial reduction by living metabolically active cells of the MTT (3-(4,5-dimethylthiazol-2-yl)-2,5-diphenyltetrazolium bromide) of yellowish colour into a blue coloured product, formazan. The quantity of formazan obtained is directly proportional to the number of living cells. After incubation of the cells for 24 hours in microplates with 96 flat bottomed wells, the culture medium is replaced by 100 μl of fresh culture medium containing the drug to be tested.
# (§5) The microplates are then incubated for 3 hours at 37° C. and centrifuged for 10 minutes at 400 g (GPR centrifuge, Beckman). The MTT solution is replaced by 100 μl of dimethylsulphoxide (Merck). The microplates are agitated (Vari-Shaker, Dynatech) for 10 minutes.
# (§6) In the microplates, the control cells like the treated cells were incubated in a medium without the compounds to be tested for 24 hours. The control cells are incubated in a medium without a drug throughout the whole experiment, while the treated cells are incubated in different media. These media contain the molecule to be tested at various concentrations: 10^-8 M, 10^-6 M and 10^-4 M. All the tests are carried out in 6 duplicates.
# (§7) The statistical comparisons are carried out according to the Fisher Test:
# (§8) The mean optical density measured for each experimental condition is expressed as a percentage in relation to the laid down control condition being equal to 100%.
# [5] = tested on: T-47D human mammary cancer cells; test: MTT test, proliferation of T-47D; format: cell-based; conditions: Homo sapiens, T47D, T-47D, 72 h, control = 100%, read-out: level of proliferation; for activity at 100 µM: 10^-4 M; for activity at 1 µM: 10^-6 M; for activity at 0.01 µM: 10^-8 M
# Description: as §2, §3, §4, §5, §6, §7, §8
# [6] = tested on: A549 human pulmonary cancer cells; test: MTT test, proliferation of A549; format: cell-based; conditions: Homo sapiens, 72 h, control = 100%, read-out: level of proliferation; for activity at 100 µM: A549, 10^-4 M; for activity at 1 µM: A549, 10^-6 M; for activity at 0.01 µM: A549, 10^-8 M
# [7] = tested on: A-427 human pulmonary cancer cells; test: MTT test, proliferation of A-427; conditions: Homo sapiens, A-427, 72 h, read-out: level of proliferation
smiles,measurement,setting,value
"CC1(C)CCC(C)(C)c2cc(C(=O)Nc3ccc(C(=O)O)cc3)ccc21 [Am580, 4-[(5,6,7,8-tetrahydro-5,5,8,8-tetramethyl-2-naphthalenyl)carboxamido]benzoic acid, reference compound]",inhibition at 0.1 µM,"[1]; Homo sapiens, MCF7, 10^-7 M, cells activated by 10^-7 M TPA, range of several experiments, read-out: anti-AP-1 effect, inhibition",41 to 48%
same,inhibition at 0.01 µM,"[1]; Homo sapiens, MCF7, 10^-8 M, cells activated by 10^-7 M TPA, range of several experiments, read-out: anti-AP-1 effect, inhibition",40 to 46%
same,inhibition at 0.01 µM,"[2]; Homo sapiens, MCF7, 10^-8 M, cells activated by 10^-9 M estradiol, read-out: anti-oestrogenic effect, inhibition",36 to 51%
same,"anti-oestrogenic effect, inhibition (of the order of)","[2]; MELN, estradiol 10^-9 M",~40%
Cc1cc2c(cc1/C=C1/CCc3cc(-c4nnn[nH]4)ccc31)C(C)(C)CCC2(C)C [CB02981],mean number of cellular colonies in relation to control,"[3]; 10^-8 M, 0.01 µM",48.8 ± 5.3%
same,mean number of cellular colonies in relation to control,"[3]; 10^-9 M, 0.001 µM",67.6 ± 8.9%
same,mean number of cellular colonies in relation to control,"[3]; 10^-10 M, 0.0001 µM",80.1 ± 13.2%
"CC1=C(/C=C/C(C)=C/C=C/C(C)=C/C(=O)Nc2ccc(O)cc2)C(C)(C)CCC1 [CB05764, reference compound]",activity at 100 µM,[4],0.6%
same,activity at 1 µM,[4],81.9%
same,activity at 0.01 µM,[4],97.3%
same,activity at 100 µM,[5],0%
same,activity at 1 µM,[5],66.4%
same,activity at 0.01 µM,[5],82.5%
same,activity at 0.1 µM,[3],18.8%
same,activity at 0.01 µM,[3]; 10^-8 M,33.6%
same,activity at 0.001 µM,[3]; 10^-9 M,83.3%
same,activity at 0.0001 µM,[3]; 10^-10 M,80.3%
same,effect on growth of cellular colonies (in words),[3],strongly active at concentration 10^-7 M loses its significant inhibiting activity beyond the concentration of 10^-9 M
Cc1cc2c(cc1/C=C1\CCc3cc(C(=O)O)ccc31)C(C)(C)CCC2(C)C [CB40341],mean number of cellular colonies in relation to control,"[3]; 10^-8 M, 0.01 µM",65.6 ± 9.5%
same,mean number of cellular colonies in relation to control,"[3]; 10^-9 M, 0.001 µM",90.8 ± 0.8%
same,mean number of cellular colonies in relation to control,"[3]; 10^-10 M, 0.0001 µM",99.1 ± 9.7%
"CC/C(=C(\c1ccccc1)c1ccc(OCCN(C)C)cc1)c1ccccc1 [CB58707, tamoxifen, reference compound]",activity at 0.1 µM,[3],31.3%
same,activity at 0.01 µM,[3]; 10^-8 M,46.9%
same,activity at 0.001 µM,[3]; 10^-9 M,35.5%
same,activity at 0.0001 µM,[3]; 10^-10 M,56.7%
same,effect on growth of cellular colonies (in words),[3],significant inhibition in the growth of these colonies but its activity is not dose dependent
C/C(=C/c1cc2c(cc1C)C(C)(C)CCC2(C)C)c1ccc(-c2nnn[nH]2)cc1 [CB61692],activity at 100 µM,[4],0%
same,activity at 1 µM,[4],89.5%
same,activity at 0.01 µM,[4],93.2%
same,activity at 100 µM,[5],0%
same,activity at 1 µM,[5],93.8%
same,activity at 0.01 µM,[5],106%
same,activity at 100 µM,[6],0%
same,activity at 1 µM,[6],98.2%
same,activity at 0.01 µM,[6],106%
same,activity at 0.01 µM,[3]; 10^-8 M,55.7 ± 2.6%
same,activity at 0.001 µM,[3]; 10^-9 M,41.5 ± 5.7%
same,activity at 0.0001 µM,[3]; 10^-10 M,90.3 ± 4.7%
same,activity at 0.01 µM,[7],105%
same,activity at 1 µM,[7],107%
same,activity at 100 µM,[7],0.6%
C/C(=C/c1ccc2c(c1)C(C)(C)CCC2(C)C)c1cc(C(=O)O)no1 [CB73069],inhibition,"[2]; Homo sapiens, MCF7, 10^-6 M, cells activated by 10^-9 M estradiol",17 to 21%
COc1cc2c(cc1/C(C)=C/c1ccc(C(=O)O)cc1)C(C)(C)CCS2(=O)=O [CB77787],activity at 100 µM,[4],93.5%
same,activity at 1 µM,[4],113%
same,activity at 0.01 µM,[4],114%
same,activity at 100 µM,[5],86.3%
same,activity at 1 µM,[5],120%
same,activity at 0.01 µM,[5],129%
same,activity at 100 µM,[6],103%
same,activity at 1 µM,[6],125%
same,activity at 0.01 µM,[6],118%
same,activity at 0.01 µM,[7],120%
same,activity at 1 µM,[7],110%
same,activity at 100 µM,[7],163%
"CCCCCCCOc1cc2c(cc1/C(C)=C/c1ccc(C(=O)O)cc1)C(C)(C)CCS2(=O)=O [Ro 41-5253, reference compound]",anti-AP-1 effect (in words),[1]; TPA-activated MTLN cells,does not allow the inhibition induced by TTNPB to be totally lifted
same,anti-oestrogenic effect (in words),[2]; estradiol-activated MELN cells,raises the inhibitor effect of Am580 and also of TTNPB
